Data on 21 compounds can be found in US11247990B1, “Bicyclic fused pyridine compounds as inhibitors of TAM kinases” (ARRAY BIOPHARMA INC., priority 2017, dated 2022).

Common to all, as to settings: averaged IC50
Test [1] addresses His-tagged recombinant human AXL cytoplasmic domain (Homo sapiens (Human), UniProt P30530). Kind of test: AXL Enzyme Assay (LanthaScreen Eu Kinase Binding, TR-FRET). The method in brief:
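LanthaScreen Eu kinase binding format, incubated 60 min at 22 °C and read by TR-FRET dual-wavelength emission ratio as percent of control. IC50 taken where a 4-parameter logistic fit crosses 50 POC.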
Background: In TR-FRET formats the signal depends on donor and acceptor labels being close together.

Test [2] concerns the target GST-tagged recombinant human TYRO3 kinase domain (Homo sapiens (Human), UniProt Q06418). Description: TYRO3 Enzyme Assay (LanthaScreen Eu Kinase Binding, TR-FRET). The method in brief: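 LanthaScreen Eu binding (tracer displacement) format read by TR-FRET after 60 min at 22 °C. Emission ratio converted to percent of control; IC50 taken where a 4-parameter logistic fit crosses 50 POC.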

For test [3], the target named is His-tagged recombinant human MER cytoplasmic domain (Homo sapiens (Human), UniProt Q12866). Kind of test: MER Enzyme Assay (LanthaScreen Eu Kinase Binding, TR-FRET). The method in brief:
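LanthaScreen Eu kinase binding (tracer displacement) assay with His-tagged human MER cytoplasmic domain, 60 min incubation at 22 °C. TR-FRET dual-wavelength emission ratio converted to percent of control; IC50 is where the 4-parameter logistic fit crosses 50 POC.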

Counter-ions that a name gives are not always drawn.

GST-tagged recombinant human TYRO3 kinase domain, sequence (Q06418 518-790): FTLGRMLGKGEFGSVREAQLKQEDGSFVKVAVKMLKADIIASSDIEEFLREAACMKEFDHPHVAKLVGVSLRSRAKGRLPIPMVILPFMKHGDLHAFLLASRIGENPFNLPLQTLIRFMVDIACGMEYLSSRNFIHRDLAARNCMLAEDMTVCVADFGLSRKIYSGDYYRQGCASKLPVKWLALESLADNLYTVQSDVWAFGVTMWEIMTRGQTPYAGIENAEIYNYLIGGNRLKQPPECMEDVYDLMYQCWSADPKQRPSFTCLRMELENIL
His-tagged recombinant human AXL cytoplasmic domain, sequence (P30530 473-894): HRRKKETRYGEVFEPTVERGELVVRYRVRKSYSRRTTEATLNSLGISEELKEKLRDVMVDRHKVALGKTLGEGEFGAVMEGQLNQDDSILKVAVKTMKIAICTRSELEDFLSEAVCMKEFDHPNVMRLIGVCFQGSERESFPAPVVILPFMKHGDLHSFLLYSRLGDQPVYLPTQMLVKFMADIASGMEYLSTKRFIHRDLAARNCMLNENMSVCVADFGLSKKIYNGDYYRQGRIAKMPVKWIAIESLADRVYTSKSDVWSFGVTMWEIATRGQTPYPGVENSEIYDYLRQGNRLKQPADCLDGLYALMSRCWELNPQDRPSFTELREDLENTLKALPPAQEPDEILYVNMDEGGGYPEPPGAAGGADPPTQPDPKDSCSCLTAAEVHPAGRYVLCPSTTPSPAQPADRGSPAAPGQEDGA
His-tagged recombinant human MER cytoplasmic domain, sequence (Q12866 527-999): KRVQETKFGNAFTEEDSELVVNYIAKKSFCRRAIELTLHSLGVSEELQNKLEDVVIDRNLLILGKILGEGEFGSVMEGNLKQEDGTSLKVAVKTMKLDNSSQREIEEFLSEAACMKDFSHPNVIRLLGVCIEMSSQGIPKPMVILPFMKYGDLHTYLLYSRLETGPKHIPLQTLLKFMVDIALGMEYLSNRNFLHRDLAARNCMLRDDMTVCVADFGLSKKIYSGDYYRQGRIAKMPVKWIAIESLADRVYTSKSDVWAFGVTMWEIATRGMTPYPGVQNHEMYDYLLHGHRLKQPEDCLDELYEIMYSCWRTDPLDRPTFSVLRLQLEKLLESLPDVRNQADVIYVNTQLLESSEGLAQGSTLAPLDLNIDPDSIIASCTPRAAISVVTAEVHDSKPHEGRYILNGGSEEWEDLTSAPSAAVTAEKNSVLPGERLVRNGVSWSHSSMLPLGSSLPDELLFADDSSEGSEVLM

`CNc1cc2c(cn1)c(-c1cnn(C)c1)nn2[C@H]1CC[C@@H](Oc2cc(Cl)cnc2C#N)CC1` [Example 175, 5-chloro-3-(((1s,4s)-4-(3-(1-methyl-1H-pyrazol-4-yl)-6-(methylamino)-1H-pyrazolo[4,3-c]pyridin-1-yl)cyclohexyl)oxy)picolinonitrile]: the IC50 (as a rule, the point on the concentration scale where inhibition reaches its midpoint) in test [1] is less than 10 nM; in test [2], 10 to 100 nM; in test [3] it was less than 10 nM.
In the case of `CCNc1cc2c(cn1)c(-c1cnn(C)c1)nn2[C@H]1CC[C@@H](Oc2cccnc2F)CC1` [Example 183, N-ethyl-1-((1s,4s)-4-((2-fluoropyridin-3-yl)oxy)cyclohexyl)-3-(1-methyl-1H-pyrazol-4-yl)-1H-pyrazolo[4,3-c]pyridin-6-amine], the IC50 in test [1], in test [2] and in test [3] was less than 10 nM throughout.
As to `CCNc1cc2c(cn1)c(-c1cnn(C)c1)nn2[C@H]1CC[C@@H](Oc2cccnc2C(F)(F)F)CC1` [Example 184, N-ethyl-3-(1-methyl-1H-pyrazol-4-yl)-1-((1s,4s)-4-((2-(trifluoromethyl)pyridin-3-yl)oxy)cyclohexyl)-1H-pyrazolo[4,3-c]pyridin-6-amine], the IC50 in test [1], in test [2] and in test [3] was less than 10 nM in each case.
`CCNc1cc2c(cn1)c(-c1cnn(C)c1)nn2[C@H]1CC[C@@H](Oc2cccnc2C#N)CC1` [Example 188, 3-(((1s,4s)-4-(6-(ethylamino)-3-(1-methyl-1H-pyrazol-4-yl)-1H-pyrazolo[4,3-c]pyridin-1-yl)cyclohexyl)oxy)picolinonitrile]: the IC50 in test [1], in test [2] and in test [3] was less than 10 nM throughout.
On to `CCNc1cc2c(cn1)c(-c1cnn(C)c1)nn2[C@H]1CC[C@@H](Oc2nccnc2CC)CC1` [Example 190, N-ethyl-1-((1s,4s)-4-((3-ethylpyrazin-2-yl)oxy)cyclohexyl)-3-(1-methyl-1H-pyrazol-4-yl)-1H-pyrazolo[4,3-c]pyridin-6-amine], for which the IC50 is less than 10 nM in test [1], 10 to 100 nM in test [2] and less than 10 nM in test [3].
`CCNc1cc2c(cn1)c(-c1cnn(C)c1)nn2[C@H]1CC[C@@H](Oc2nccnc2C(F)(F)F)CC1` [Example 194, N-ethyl-3-(1-methyl-1H-pyrazol-4-yl)-1-((1s,4s)-4-((3-(trifluoromethyl)pyrazin-2-yl)oxy)cyclohexyl)-1H-pyrazolo[4,3-c]pyridin-6-amine]: the IC50 in test [1], in test [2] and in test [3] was less than 10 nM each time.
As for `CCNc1cc2c(cn1)c(-c1cnn(C)c1)nn2[C@H]1CC[C@@H](Oc2nccc(C(F)(F)F)c2F)CC1` [Example 198, N-ethyl-1-((1s,4s)-4-((3-fluoro-4-(trifluoromethyl)pyridin-2-yl)oxy)cyclohexyl)-3-(1-methyl-1H-pyrazol-4-yl)-1H-pyrazolo[4,3-c]pyridin-6-amine], the IC50 in test [1] is less than 10 nM; in test [2], 10 to 100 nM; in test [3], less than 10 nM.
For the compound `C#Cc1ncccc1OC1CCC(n2nc(-c3cnn(C)c3)c3cnc(NCC)cc32)CC1` (stereo not drawn) [Example 199, N-ethyl-1-((1s,4s)-4-((2-ethynylpyridin-3-yl)oxy)cyclohexyl)-3-(1-methyl-1H-pyrazol-4-yl)-1H-pyrazolo[4,3-c]pyridin-6-amine], the concentration for half-maximal inhibition (IC50) in test [1], in test [2] and in test [3] was less than 10 nM each time.
As for `CNc1cc2c(cn1)c(-c1cnn(C[C@H](O)CO)c1)nn2[C@H]1CC[C@@H](Oc2cccnc2C(F)(F)F)CC1` [Example 204, (S)-3-(4-(6-(methylamino)-1-((1s,4R)-4-((2-(trifluoromethyl)pyridin-3-yl)oxy)cyclohexyl)-1H-pyrazolo[4,3-c]pyridin-3-yl)-1H-pyrazol-1-yl)propane-1,2-diol hydrochloride], the half-inhibitory concentration (IC50) in test [1], in test [2] and in test [3] was less than 10 nM in each case.
On to `CCNc1cc2c(cn1)c(-c1cnn(CC(CO)CO)c1)nn2[C@H]1CC[C@@H](Oc2cccnc2C(F)(F)F)CC1` [Example 205, 2-((4-(6-(ethylamino)-1-((1s,4s)-4-((2-(trifluoromethyl)pyridin-3-yl)oxy)cyclohexyl)-1H-pyrazolo[4,3-c]pyridin-3-yl)-1H-pyrazol-1-yl)methyl)propane-1,3-diol], for which the IC50 in test [1], in test [2] and in test [3] was less than 10 nM each time.
`CNc1cc2c(cn1)c(-c1cnn(C[C@@H](O)CO)c1)nn2[C@H]1CC[C@@H](Oc2cccnc2C(F)(F)F)CC1` [Example 206, ®-3-(4-(6-(methylamino)-1-((1s,4s)-4-((2-(trifluoromethyl)pyridin-3-yl)oxy)cyclohexyl)-1H-pyrazolo[4,3-c]pyridin-3-yl)-1H-pyrazol-1-yl)propane-1,2-diol]: the IC50 in test [1], in test [2] and in test [3] was less than 10 nM throughout.
For `CCNc1cc2c(cn1)c(-c1cnn(C(CO)CO)c1)nn2[C@H]1CC[C@@H](Oc2cccnc2C(F)(F)F)CC1` [Example 207, 2-(4-(6-(ethylamino)-1-((1s,4s)-4-((2-(trifluoromethyl)pyridin-3-yl)oxy)cyclohexyl)-1H-pyrazolo[4,3-c]pyridin-3-yl)-1H-pyrazol-1-yl)propane-1,3-diol], the IC50 in test [1], in test [2] and in test [3] was less than 10 nM throughout.
For the compound `CCNc1cc2c(cn1)c(-c1cnn(C[C@H](O)CO)c1)nn2[C@H]1CC[C@@H](Oc2cccnc2C(F)(F)F)CC1` [Example 208, (S)-3-(4-(6-(ethylamino)-1-((1s,4R)-4-((2-(trifluoromethyl)pyridin-3-yl)oxy)cyclohexyl)-1H-pyrazolo[4,3-c]pyridin-3-yl)-1H-pyrazol-1-yl)propane-1,2-diol], the IC50 in test [1], in test [2] and in test [3] was less than 10 nM in each case.
`CCNc1cc2c(cn1)c(-c1cnn(C[C@@H](O)CO)c1)nn2[C@H]1CC[C@@H](Oc2cccnc2C(F)(F)F)CC1` [Example 209, ®-3-(4-(6-(ethylamino)-1-((1s,4R)-4-((2-(trifluoromethyl)pyridin-3-yl)oxy)cyclohexyl)-1H-pyrazolo[4,3-c]pyridin-3-yl)-1H-pyrazol-1-yl)propane-1,2-diol]: the IC50 in test [1], in test [2] and in test [3] was less than 10 nM each time.
For the compound `CNc1cc2c(cn1)c(-c1cnn(C(CO)CO)c1)nn2[C@H]1CC[C@@H](Oc2cccnc2C(F)(F)F)CC1` [Example 210, 2-(4-(6-(methylamino)-1-((1 s,4s)-4-((2-(trifluoromethyl)pyridin-3-yl)oxy)cyclohexyl)-1H-pyrazolo[4,3-c]pyridin-3-yl)-1H-pyrazol-1-yl)propane-1,3-diol], the IC50 in test [1], in test [2] and in test [3] was less than 10 nM in each case.
With `CNc1cc2c(cn1)c(-c1cnn(CCS(C)(=O)=O)c1)nn2[C@H]1CC[C@@H](Oc2nccnc2C)CC1` [Example 211, N-methyl-1-((1s,4s)-4-((3-methylpyrazin-2-yl)oxy)cyclohexyl)-3-(1-(2-(methylsulfonyl)ethyl)-1H-pyrazol-4-yl)-1H-pyrazolo[4,3-c]pyridin-6-amine], the results for the IC50 in test [1], in test [2] and in test [3] were less than 10 nM, 10 to 100 nM and less than 10 nM, respectively.
For `CNc1cc2c(cn1)c(-c1cnn(C(C)(C)C#N)c1)nn2[C@H]1CC[C@@H](Oc2nccnc2C)CC1` [Example 212, 2-methyl-2-(4-(6-(methylamino)-1-((1s,4s)-4-((3-methylpyrazin-2-yl)oxy)cyclohexyl)-1H-pyrazolo[4,3-c]pyridin-3-yl)-1H-pyrazol-1-yl)propanenitrile], the IC50 in test [1] was less than 10 nM; in test [2] it was 10 to 100 nM; in test [3], less than 10 nM.
With `CNc1cc2c(cn1)c(-c1cnn(C3CCN(C)CC3)c1)nn2[C@H]1CC[C@@H](Oc2nccnc2C)CC1` [Example 214, N-methyl-3-(1-(1-methylpiperidin-4-yl)-1H-pyrazol-4-yl)-1-((1s,4s)-4-((3-methylpyrazin-2-yl)oxy)cyclohexyl)-1H-pyrazolo[4,3-c]pyridin-6-amine], the figures for the IC50 in test [1], in test [2] and in test [3] were less than 10 nM, 10 to 100 nM and less than 10 nM, respectively.
For the compound `CNc1cc2c(cn1)c(-c1cnn(CC3CCOCC3)c1)nn2[C@H]1CC[C@@H](Oc2nccnc2C)CC1` [Example 215, N-methyl-1-((1s,4s)-4-((3-methylpyrazin-2-yl)oxy)cyclohexyl)-3-(1-((tetrahydro-2H-pyran-4-yl)methyl)-1H-pyrazol-4-yl)-1H-pyrazolo[4,3-c]pyridin-6-amine], the IC50 was less than 10 nM in test [1], 10 to 100 nM in test [2] and less than 10 nM in test [3].
With `CNc1cc2c(cn1)c(-c1ccn(C)c(=O)c1)nn2[C@H]1CC[C@@H](Oc2cccnc2C(F)(F)F)CC1` [Example 216, 1-methyl-4-(6-(methylamino)-1-((1s,4s)-4-((2-(trifluoromethyl)pyridin-3-yl)oxy)cyclohexyl)-1H-pyrazolo[4,3-c]pyridin-3-yl)pyridin-2(1H)-one], the IC50 in test [1], in test [2] and in test [3] was less than 10 nM each time.
`CNc1cc2c(cn1)c(-c1ccc(=O)n(C)c1)nn2[C@H]1CC[C@@H](Oc2cccnc2C(F)(F)F)CC1` [Example 217, 1-methyl-5-(6-(methylamino)-1-((1s,4s)-4-((2-(trifluoromethyl)pyridin-3-yl)oxy)cyclohexyl)-1H-pyrazolo[4,3-c]pyridin-3-yl)pyridin-2(1H)-one]: the IC50 in test [1], in test [2] and in test [3] was less than 10 nM each time.
